Measured values taken from US9439903B2, “Process for the preparation of amorphous imatinib mesylate” (CADILA HEALTHCARE LIMITED, priority 2012, dated 2016).
Structures can show the parent of a compound that is named as a salt.

How the values were obtained:
Format in all cases: physicochemical
[1] = Stability of amorphous imatinib mesylate, real time storage 25° C./60% RH; settings: 25° C. ± 2° C./60% ± 5% RH (Real time)
Method: (§1) The amorphous imatinib mesylate having less than 2.0% water, in particular, having less than 1.7% water, more particularly, water content is in the range of 0.7% to 1.7% as manufactured by the process of the present invention was subjected to stability for at least 6 months at 25° C./60% RH or at about 40° C./75% RH. The following Table-1 and Tabel-2 discloses the stability conditions and results.

[2] = Stability of amorphous imatinib mesylate, accelerated storage 40° C./75% RH; settings: 40° C. ± 2° C./75% ± 5% RH (Accelerated)
Method: as §1

[3] = Hygroscopicity as per Ph. Eur. general chapter 5.11
From the text: In one general aspect, the amorphous imatinib mesylate was subjected to study the hygroscopicity as per the Ph. Eur. general chapter 5.11.

**Q.** With `Cc1ccc(NC(=O)c2ccc(CN3CCN(C)CC3)cc2)cc1Nc1nccc(-c2cccnc2)n1` [amorphous imatinib mesylate, Imatinib mesylate] as the molecule, how does the Description ([1]; 1 Month) read?
**A.** Pale yellow

**Q.** And the “Related substance (%) by HPLC: Impurity-AMPPP” value ([1]; 1 Month)?
**A.** BQL

**Q.** What about the “Related substance (%) by HPLC: Impurity-MPMBA” value ([1]; 1 Month) of the same molecule?
**A.** BQL

**Q.** What about the “Related substance (%) by HPLC: Impurity-Methyl Ester analouge” value ([1]; 1 Month) of the same molecule?
**A.** BQL

**Q.** And the “Related substance (%) by HPLC: Impurity-NMPPP” value ([1]; 1 Month)?
**A.** BQL

**Q.** And the “Related substance (%) by HPLC: Single largest unknown Imp” value ([1]; 1 Month)?
**A.** 0.03%

**Q.** And the “Related substance (%) by HPLC: Total Impurities” value ([1]; 1 Month)?
**A.** 0.04%

**Q.** And the “Water (%)” value ([1]; 1 Month)?
**A.** 0.72%

**Q.** And the “X-Ray Diffraction” value ([1]; 1 Month)?
**A.** Amorphous

**Q.** What about the Description ([1]; 2 Months) of the same molecule?
**A.** Pale yellow

**Q.** What about the “Related substance (%) by HPLC: Impurity-AMPPP” value ([1]; 2 Months) of the same molecule?
**A.** BQL

**Q.** And the “Related substance (%) by HPLC: Impurity-MPMBA” value ([1]; 2 Months)?
**A.** BQL

**Q.** And the “Related substance (%) by HPLC: Impurity-Methyl Ester analouge” value ([1]; 2 Months)?
**A.** BQL

**Q.** What about the “Related substance (%) by HPLC: Impurity-NMPPP” value ([1]; 2 Months) of the same molecule?
**A.** BQL

**Q.** What about the “Related substance (%) by HPLC: Single largest unknown Imp” value ([1]; 2 Months) of the same molecule?
**A.** 0.03%

**Q.** And the “Related substance (%) by HPLC: Total Impurities” value ([1]; 2 Months)?
**A.** 0.04%

**Q.** And the “Water (%)” value ([1]; 2 Months)?
**A.** 0.64%

**Q.** What about the “X-Ray Diffraction” value ([1]; 2 Months) of the same molecule?
**A.** Amorphous

**Q.** And the Description ([1]; 3 Months)?
**A.** Pale yellow

**Q.** And the “Related substance (%) by HPLC: Impurity-AMPPP” value ([1]; 3 Months)?
**A.** BQL

**Q.** What about the “Related substance (%) by HPLC: Impurity-MPMBA” value ([1]; 3 Months) of the same molecule?
**A.** BQL

**Q.** What about the “Related substance (%) by HPLC: Impurity-Methyl Ester analouge” value ([1]; 3 Months) of the same molecule?
**A.** BQL

**Q.** And the “Related substance (%) by HPLC: Impurity-NMPPP” value ([1]; 3 Months)?
**A.** BQL

**Q.** And the “Related substance (%) by HPLC: Single largest unknown Imp” value ([1]; 3 Months)?
**A.** 0.03%

**Q.** And the “Related substance (%) by HPLC: Total Impurities” value ([1]; 3 Months)?
**A.** 0.05%

**Q.** What about the “Water (%)” value ([1]; 3 Months) of the same molecule?
**A.** 0.65%

**Q.** What about the “X-Ray Diffraction” value ([1]; 3 Months) of the same molecule?
**A.** Amorphous

**Q.** What about the Description ([1]; 6 Months) of the same molecule?
**A.** Pale yellow

**Q.** And the “Related substance (%) by HPLC: Impurity-AMPPP” value ([1]; 6 Months)?
**A.** BQL

**Q.** And the “Related substance (%) by HPLC: Impurity-MPMBA” value ([1]; 6 Months)?
**A.** BQL

**Q.** What about the “Related substance (%) by HPLC: Impurity-Methyl Ester analouge” value ([1]; 6 Months) of the same molecule?
**A.** BQL

**Q.** And the “Related substance (%) by HPLC: Impurity-NMPPP” value ([1]; 6 Months)?
**A.** BQL

**Q.** And the “Related substance (%) by HPLC: Single largest unknown Imp” value ([1]; 6 Months)?
**A.** 0.03%

**Q.** What about the “Related substance (%) by HPLC: Total Impurities” value ([1]; 6 Months) of the same molecule?
**A.** 0.06%

**Q.** What about the “Water (%)” value ([1]; 6 Months) of the same molecule?
**A.** 0.69%

**Q.** What about the “X-Ray Diffraction” value ([1]; 6 Months) of the same molecule?
**A.** Amorphous

**Q.** And the Description ([2]; 1 Month)?
**A.** Pale yellow

**Q.** And the “Related substance (%) by HPLC: Impurity-AMPPP” value ([2]; 1 Month)?
**A.** BQL

**Q.** What about the “Related substance (%) by HPLC: Impurity-MPMBA” value ([2]; 1 Month) of the same molecule?
**A.** BQL

**Q.** What about the “Related substance (%) by HPLC: Impurity-Methyl Ester analouge” value ([2]; 1 Month) of the same molecule?
**A.** BQL

**Q.** What about the “Related substance (%) by HPLC: Impurity-NMPPP” value ([2]; 1 Month) of the same molecule?
**A.** BQL

**Q.** And the “Related substance (%) by HPLC: Single largest unknown Imp” value ([2]; 1 Month)?
**A.** 0.03%

**Q.** And the “Related substance (%) by HPLC: Total Impurities” value ([2]; 1 Month)?
**A.** 0.04%

**Q.** What about the “Water (%)” value ([2]; 1 Month) of the same molecule?
**A.** 0.88%

**Q.** What about the “X-Ray Diffraction” value ([2]; 1 Month) of the same molecule?
**A.** Amorphous

**Q.** What about the Description ([2]; 2 Month) of the same molecule?
**A.** Pale yellow

**Q.** And the “Related substance (%) by HPLC: Impurity-AMPPP” value ([2]; 2 Month)?
**A.** BQL

**Q.** What about the “Related substance (%) by HPLC: Impurity-MPMBA” value ([2]; 2 Month) of the same molecule?
**A.** BQL

**Q.** What about the “Related substance (%) by HPLC: Impurity-Methyl Ester analouge” value ([2]; 2 Month) of the same molecule?
**A.** BQL

**Q.** And the “Related substance (%) by HPLC: Impurity-NMPPP” value ([2]; 2 Month)?
**A.** BQL

**Q.** And the “Related substance (%) by HPLC: Single largest unknown Imp” value ([2]; 2 Month)?
**A.** 0.03%

**Q.** What about the “Related substance (%) by HPLC: Total Impurities” value ([2]; 2 Month) of the same molecule?
**A.** 0.05%

**Q.** And the “Water (%)” value ([2]; 2 Month)?
**A.** 0.89%

**Q.** What about the “X-Ray Diffraction” value ([2]; 2 Month) of the same molecule?
**A.** Amorphous

**Q.** What about the Description ([2]; 3 Month) of the same molecule?
**A.** Pale yellow

**Q.** What about the “Related substance (%) by HPLC: Impurity-AMPPP” value ([2]; 3 Month) of the same molecule?
**A.** BQL

**Q.** What about the “Related substance (%) by HPLC: Impurity-MPMBA” value ([2]; 3 Month) of the same molecule?
**A.** BQL

**Q.** And the “Related substance (%) by HPLC: Impurity-Methyl Ester analouge” value ([2]; 3 Month)?
**A.** BQL

**Q.** What about the “Related substance (%) by HPLC: Impurity-NMPPP” value ([2]; 3 Month) of the same molecule?
**A.** BQL

**Q.** What about the “Related substance (%) by HPLC: Single largest unknown Imp” value ([2]; 3 Month) of the same molecule?
**A.** 0.03%

**Q.** What about the “Related substance (%) by HPLC: Total Impurities” value ([2]; 3 Month) of the same molecule?
**A.** 0.07%

**Q.** What about the “Water (%)” value ([2]; 3 Month) of the same molecule?
**A.** 0.79%

**Q.** And the “X-Ray Diffraction” value ([2]; 3 Month)?
**A.** Amorphous

**Q.** What about the Description ([2]; 6 Month) of the same molecule?
**A.** Pale yellow

**Q.** What about the “Related substance (%) by HPLC: Impurity-AMPPP” value ([2]; 6 Month) of the same molecule?
**A.** BQL

**Q.** And the “Related substance (%) by HPLC: Impurity-MPMBA” value ([2]; 6 Month)?
**A.** BQL

**Q.** And the “Related substance (%) by HPLC: Impurity-Methyl Ester analouge” value ([2]; 6 Month)?
**A.** BQL

**Q.** And the “Related substance (%) by HPLC: Impurity-NMPPP” value ([2]; 6 Month)?
**A.** BQL

**Q.** And the “Related substance (%) by HPLC: Single largest unknown Imp” value ([2]; 6 Month)?
**A.** 0.03%

**Q.** And the “Related substance (%) by HPLC: Total Impurities” value ([2]; 6 Month)?
**A.** 0.07%

**Q.** What about the “Water (%)” value ([2]; 6 Month) of the same molecule?
**A.** 0.95%

**Q.** What about the “X-Ray Diffraction” value ([2]; 6 Month) of the same molecule?
**A.** Amorphous

**Q.** What about the hygroscopicity [3] of the same molecule?
**A.** very hygroscopic
